Assay results taken from patent publication US9206198B2, “Inhibitors of the renal outer medullary potassium channel” (Merck Sharp & Dohme Corp., priority 2012, dated 2015).

Columns and labels:
Kir1.1 (ROMK1) = Kir1.1 (ROMK1) (Homo sapiens (Human), UniProt P48048); assay: Electrophysiology Assay (whole cell voltage clamp, IonWorks Quattro); format: cell-based; settings: Chinese hamster ovary cells stably expressing Kir1.1; block during voltage step to 0 mV
Protocol: Block of Kir1.1 (ROMK1) currents was examined by whole cell voltage clamp (Hamill et. al. Pfluegers Archives 391:85-100 (1981)) using the IonWorks Quattro automated electrophysiology platform (Molecular Devices, Sunnyvale, Calif.). Chinese hamster ovary cells stably expressing Kir1.1 channels were maintained in T-75 flasks in cell culture media in a humidified 10% CO2 incubator at 37° C. Prior to an experiment, Kir1.1 expression was induced by overnight incubation with 1 mM sodium butyrate. On the day of the experiment, cells were dissociated with 2.5 mL of Versene (Invitrogen 15040-066) for approximately 6 min at 37° C. and suspended in 10 mL of bath solution containing (in mM): 150 NaCl, 10 KCl, 2.7 CaCl2, 0.5 MgCl2, 5 HEPES, pH 7.4. After centrifugation, the cell pellet was resuspended in approximately 4.0 mL of bath solution and placed in the IonWorks instrument. The intracellular solution consisted of (in mM): 80 K gluconate, 40 KCl, 20 KF, 3.2 MgCl2, 3 EGTA, 5 Hepes, pH 7.4. Electrical access to the cytoplasm was achieved by perforation in 0.13 mg/mL amphotericin B for 4 min. Amphotericin B (Sigma A-4888) was prepared as a 40 mg/mL solution in DMSO. Voltage protocols and current recordings were performed using the IonWorks HT software/hardware system. Currents were sampled at 1 kHz. No correction for liquid junction potentials was used. The test pulse, consisting of a 100 ms step to 0 mV from a holding potential of −70 mV, followed by a 100 ms voltage ramp from −70 mV to +70 mV, was applied before and after a 6 min compound incubation period. Test compounds were prepared by diluting DMSO stock solutions into the bath solution at 3× the final concentration and placed in the instrument in 96-well polypropylene plates. Current amplitudes were measured using the IonWorks software. To assess compound potency, the fractional block during the voltage step to 0 mV was calculated in Microsoft Excel (Microsoft, Redmond, Calif.), and dose-response curves were fitted with Igor Pro 4.0 (WaveMetrics, Lake Oswego, Oreg.). Normally, a control compound is included to support that the assay is giving consistent results compared to previous measurements, although the control is not required to obtain the results for the test compounds.

hROMK (hKir1.1) = hROMK (hKir1.1) (Homo sapiens (Human), UniProt P48048); assay: Thallium Flux Assay (ROMK channel functional thallium flux assay, FLIPR-Tetra); format: cell-based; settings: HEK293 cells stably expressing hROMK
Chain of hROMK (hKir1.1) (P48048 whole entry): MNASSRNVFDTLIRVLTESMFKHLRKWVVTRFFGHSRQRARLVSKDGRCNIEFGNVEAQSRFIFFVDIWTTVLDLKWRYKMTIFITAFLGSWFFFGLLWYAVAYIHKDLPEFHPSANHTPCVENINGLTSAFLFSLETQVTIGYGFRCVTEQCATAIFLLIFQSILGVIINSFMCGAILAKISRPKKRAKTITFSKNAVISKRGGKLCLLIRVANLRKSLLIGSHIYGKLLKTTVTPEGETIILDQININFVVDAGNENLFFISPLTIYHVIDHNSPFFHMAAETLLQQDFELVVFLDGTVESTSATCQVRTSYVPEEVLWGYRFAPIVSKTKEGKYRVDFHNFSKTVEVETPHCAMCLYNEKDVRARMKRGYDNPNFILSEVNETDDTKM
Protocol: Cell Culture Conditions— HEK293 cells stably expressing hROMK (hKir1.1) were grown at 37° C. in a 10% CO2 humidified incubator in complete growth media: Dulbecco's Modified Eagle Medium supplemented with non-essential amino acids, Penicillin/Streptomycin/Glutamine, G418 and FBS. At >80% confluency, aspirate the media from the flask and rinse with 10 mL Calcium/Magnesium-free PBS. Add 5 mL of 1× trypsin (prepared in Ca/Mg Free PBS) to T-225 flask and return flask to 37° C./CO2 incubator for 2-3 minutes. To dislodge the cell, gently bang the side of the flask with your hand. Triturate the cells completely and then transfer the cells to 25 mL complete media. Centrifuge at 1,500 rpm for 6 min followed by resuspension in complete growth media and determine cell concentration. For typical re-seeding, 4E6 cells/T-225 flask will attain >80% confluency in 4 days. Under ideal growth conditions and appropriate tissue culture practices, this cell line is stable for 40-45 passages.
FluxOR Kit Components (Invitrogen F10017)
• FluxOR™ Reagent (Component A) • FluxOR™ Assay Buffer (Component B)—10× Concentrate • PowerLoad™ Concentrate (Component C)—100× Concentrate • Probenecid (Component D)—Lyophilized sample is kept at −20° C. Water soluble, 100×after solubilization in 1 mL water. Store at 4° C. • FluxOR™ Chloride-free Buffer (Component E)—5× Concentrate • Potassium sulfate (K2SO4) Concentrate (Component F)—125 mM in water. Store at 4° C. • Thallium sulfate (Tl2SO4) Concentrate (Component G)—50 mM in water. Store at 4° C. • DMSO (dimethyl sulfoxide, Component H)—1 mL (100%) Reagent Preparation: FluxOR Working Solutions • 1000× FluxOR™ Reagent: Reconstitute a vial of component A in 100 μl DMSO; Mix well; Store 10 μl aliquots at −20° C. • 1× FluxOR™ Assay Buffer: Dilute Component B 10-fold with water; Adjust pH to 7.4 with Hepes/NaOH; Filter and store at 4° C. • Probenecid/Assay Buffer: 100 mL of 1× FluxOR™ Assay Buffer; 1 mL of reconstituted component D; Store at 4° C. • Loading Buffer (per microplate): 10 μl 1000× FluxOR™ Reagent; 100 μl component C; 10 mL Probenecid/Assay Buffer • Compound Buffer (per microplate): 20 mL Probenecid/Assay Buffer; 0.3 mM ouabain (10 mM ouabain in water can be stored in amber bottle/aluminum foil at room temperature); Test compound • 1× FluxOR™ Chloride-Free Buffer: Prepare 1× working solution in water. Can be stored at room temperature • Stimulant Buffer (prepared at 5× final concentration in 1× FluxOR™ Chloride-Free Buffer): 7.5 mM Thallium sulfate and 0.75 mM Potassium sulfate (to give a final assay concentration of 3 mM Thallium 0.3 mM Potassium). Store at 4° C. when not in use. If kept sterile, this solution is good for months.
Assay Protocol—The ROMK channel functional thallium flux assay is performed in 384 wells, using the FLIPR-Tetra instrument. HEK-hKir1.1 cells are seeded in Poly-D-Lysine microplates and kept in a 37° C.-10% CO2 incubator overnight. On the day of the experiment, the growth media is replaced with the FluxOR™ reagent loading buffer and incubated, protected from light, at ambient temperature (23-25° C.) for 90 min. The loading buffer is replaced with assay buffer±test compound followed by 30 min incubation at ambient temperature, where the Thallium/Potassium stimulant is added to the microplate.
• 1. Seed HEK-hKir1.1 cells ([…] at 20,000 cells/well) in 384-well PDL coated Microplates • 2. Allow cells to adhere overnight in humidified 37° C./10% CO2 incubator • 3. Completely remove cell growth media from microplate and replace with 25 μl loading buffer • 4. Incubate Microplate at room temperature, protected form light, for 90 min • 5. Remove loading buffer and replace with 25 μl 1× Assay Buffer±test compound. • 6. Incubate microplate at room temperature, protected from light, for 30 min • 7. At FLIPR-Tetra 384: Add stimulant (Thallium/Potassium) solution to microplate and monitor fluorescence. Excitation=400 nm, Emission=460 & 580 nm. Collect data for 10 min.

Chain of Kir1.1 (ROMK1) (P48048 whole entry, species assumed): as the sequence (P48048 whole entry) above

| SMILES | IC50 (Kir1.1 (ROMK1)) [nM] | IC50 (hROMK (hKir1.1)) [nM] |
| --- | --- | --- |
| CO[C@@H](CN1CCC2(CC1)CCN(C1=CC(=O)OC1)C2=O)c1ccc2c(c1C)COC2=O [Example 51, 8-[(2R)-2-methoxy-2-(4-methyl-1-oxo-1,3-dihydro-2-benzofuran-5-yl)ethyl]-2-(5-oxo-2,5-dihydrofuran-3-yl)-2,8-diazaspiro[4.5]decan-1-one] | 20 | 310 |
| COC1CN(C[C@H](O)c2ccc3c(c2C)COC3=O)CCC12CCN(C1=C(C)C(=O)OC1)C2=O (stereo partly shown) [Example 83] | 50 | 40 |
